Results on 18 compounds are retold here after ChEMBL document CHEMBL1131832, “Synthesis and pharmacological activity of diarylindole derivatives. Cytotoxic agents based on combretastatins” (Bioorg Med Chem Lett, 1999).

As usually defined, the IC50 is the midpoint of a concentration-inhibition curve. Read a high IC50 as a need for much substance. In general, GI50 refers to the concentration that inhibits growth by half. A lower GI50 goes with more potent growth inhibition.

Some results are limits rather than exact numbers.

One test concerns P388. The experiment in a line: Antineoplastic activity against P-388 (murine lymphoid neoplasm) cell line. It counts as functional, cell-based. To be noted: Mus musculus.
For the next test, the system named is A549. The experiment in a line: Antineoplastic activity against A-549 (human lung carcinoma) cell line. It counts as functional, cell-based.
Another test relates to HT-29. Put plainly: Antineoplastic activity against HT-29 (human colon adenocarcinoma) cell line. The test is classed as functional, cell-based.
A further test deals with SK-MEL-28. Put plainly: Antineoplastic activity against SK-MEL-28 (human melanoma) cell line. It counts as functional, cell-based.
The subject of another test is SNB-19. Put plainly: Compound was evaluated for cytostatic activity against SNB-19 CNS cancer cell line. The test is classed as functional. To be noted: Homo sapiens.
The next test has as its system RPMI-8226. Put plainly: Compound was evaluated for cytostatic activity against the RPMI-8226 leukemia cell line. The test is classed as functional. The settings on record: Homo sapiens.
For another test, the system named is SF-539. Put plainly: Compound was evaluated for cytostatic activity against SF-539 CNS cancer cell line. The test is classed as functional. To be noted: Homo sapiens.
The subject of another test is SK-MEL-5. Put plainly: Compound was evaluated for cytostatic activity against SK-MEL-5 melanoma cell line. To be noted: Homo sapiens. The test is classed as functional.
The next test deals with HCT-116. The experiment in a line: Compound was evaluated for cytostatic activity against […] colon cancer cell line. It counts as functional. To be noted: Homo sapiens.
In a further test the test system is NCI-H522. The experiment in a line: Compound was evaluated for cytostatic activity against NCI-H522 non-small cell lung cancer cell line. The test is classed as functional. The settings on record: Homo sapiens.
The test system of another test is SF-295. Put plainly: Compound was evaluated for cytostatic activity against SF-295 CNS cancer cell line. It counts as functional. To be noted: Homo sapiens.
The subject of another test is HL-60. Put plainly: Compound was evaluated for cytostatic activity against the HL-60(TB) leukemia cell line. The test is classed as functional. The settings on record: Homo sapiens.
The next test deals with OVCAR-3. The experiment in a line: Compound was evaluated for cytostatic activity against OVCAR-3 ovarian cancer cell line. The test is classed as functional. To be noted: Homo sapiens.
The next test deals with COLO 205. Put plainly: Compound was evaluated for cytostatic activity against COLO 205 colon cancer cell line. The test is classed as functional. The settings on record: Homo sapiens.
Setting [1] is: read-out: Log LC50 (the source's name) (converted).

For the compound `COc1cc(CC(=O)c2ccoc2)cc(OC)c1OC`, the IC50 in the test with P388, in the test with A549, in the test with HT-29 and in the test with SK-MEL-28 was 7.24 µM in each case.
Consider `COc1ccc2[nH]c(-c3ccc4c(c3)OCO4)c(-c3cc(OC)c(OC)c(OC)c3)c2c1`, for which the IC50 with P388 is 2.29 µM; in the test with A549 it was 6.31 µM; in the test on HT-29 it was 6.31 µM; in the test on SK-MEL-28 it was 6.31 µM.
On to `COc1cc(CCc2ccc3c(c2)OCO3)cc(OC)c1OC`, for which the midpoint of inhibition in the test on SK-MEL-28, the IC50, lay at 6.31 µM.
`COc1ccc2[nH]c(-c3ccoc3)c(-c3cc(OC)c(OC)c(OC)c3)c2c1`: the IC50 in the test on P388, with A549, with HT-29 and in the test with SK-MEL-28 was 3.24 µM throughout.
Regarding `COc1ccc2[nH]c(-c3ccc(C)o3)c(-c3cc(OC)c(OC)c(OC)c3)c2c1`, the IC50 was 5.13 µM with P388, 5.13 µM with A549, 6.46 µM in the test on HT-29 and 5.13 µM with SK-MEL-28.
For the compound `COc1cc(CC(O)c2ccoc2)cc(OC)c1OC` (stereo not given), the IC50 with P388 was 36.3 µM; in the test on A549 it was 72.4 µM; in the test with HT-29, 72.4 µM; in the test on SK-MEL-28 it was 72.4 µM.
On to `COc1ccc2[nH]c(-c3ccco3)c(-c3cc(OC)c(OC)c(OC)c3)c2c1`, for which the IC50 in the test on P388 is 0.708 µM; in the test with A549 it was 1.32 µM; in the test on HT-29, 1.32 µM. The GI50 with SNB-19 was 0.0229 µM; in the test with RPMI-8226, 0.0912 µM; in the test on SF-539, 0.117 µM; in the test on SK-MEL-5, 0.245 µM; in the test on HCT-116, 0.138 µM; in the test on NCI-H522, 0.0759 µM. In addition, the GI50 with SF-295 was 0.138 µM; in the test with HL-60 it was 0.0513 µM; with OVCAR-3, 0.17 µM; in the test on COLO 205, 0.186 µM. Besides, the CC50 is 0.977 µM in the test with SNB-19 (setting [1]); 75.9 µM with RPMI-8226 (setting [1]); 0.933 µM in the test with SF-539 (setting [1]); 28.8 µM with SK-MEL-5 (setting [1]); 2.51 µM in the test on HCT-116 (setting [1]); 3.39 µM with NCI-H522 (setting [1]). For the same compound, the CC50 is 23.4 µM in the test on SF-295 (setting [1]), > 100 µM with HL-60 (setting [1]), 7.24 µM with OVCAR-3 (setting [1]) and 0.676 µM in the test on COLO 205 (setting [1]).
Regarding `COc1cc(CC(O)c2ccc3ccccc3c2)cc(OC)c1OC` (stereo not given), the IC50 with P388, with A549, with HT-29 and with SK-MEL-28 was 2.95 µM in each case.
For the compound `COc1cc(CC(=O)c2ccco2)cc(OC)c1OC`, the IC50 in the test on P388, in the test with A549, with HT-29 and with SK-MEL-28 was > 100 µM throughout.
Regarding `COc1cc(CC(=O)c2ccc(C)o2)cc(OC)c1OC`, the IC50 with P388 was 8.71 µM; in the test with A549, 17.4 µM; in the test with HT-29, 17.4 µM; with SK-MEL-28, 8.71 µM.
As for `COc1cc(CC(O)c2ccc3c(c2)OCO3)cc(OC)c1OC` (stereo not given), the IC50 with P388, in the test with A549, in the test on HT-29 and in the test with SK-MEL-28 was > 100 µM each time.
As to `COc1cc(CCc2ccco2)cc(OC)c1OC`, the IC50 with P388, in the test with A549, in the test with HT-29 and in the test with SK-MEL-28 was 19.1 µM each time.
Regarding `COc1cc(CC(O)c2ccco2)cc(OC)c1OC` (stereo not given), the IC50 with P388 is 18.2 µM; with A549, 36.3 µM; with HT-29, 36.3 µM; in the test with SK-MEL-28 it was 36.3 µM.
Turning to `COc1cc(CCc2ccoc2)cc(OC)c1OC`, the IC50 with P388, in the test on A549, with HT-29 and in the test with SK-MEL-28 was > 100 µM each time.
In the case of `COc1cc(CCc2ccc(C)o2)cc(OC)c1OC`, the IC50 with P388, with A549, in the test on HT-29 and in the test with SK-MEL-28 was 7.24 µM each time.
On to `COc1cc(CC(=O)c2ccc3ccccc3c2)cc(OC)c1OC`, for which the IC50 in the test on P388 was 15.1 µM; in the test on A549, 15.1 µM; with HT-29 it was 30.2 µM; with SK-MEL-28, 15.1 µM.
On to `COc1ccc2[nH]c(-c3ccc4ccccc4c3)c(-c3cc(OC)c(OC)c(OC)c3)c2c1`, for which the IC50 in the test on P388 is 1.12 µM; with A549, 1.12 µM; in the test on HT-29, 2.24 µM; in the test on SK-MEL-28, 1.12 µM.
Turning to `COc1cc(CCc2ccc3ccccc3c2)cc(OC)c1OC`, in the test on SK-MEL-28, the midpoint of inhibition, the IC50, lay at 0.302 µM.
